The values that follow come from patent publication US20090318514A1, “Novel Pharmaceutical Compositions” (priority 2006, published 2009).

In experiment [1] the target is T1, hTRβ (Homo sapiens, UniProt P10828).
T1 sequence (P10828 1-461): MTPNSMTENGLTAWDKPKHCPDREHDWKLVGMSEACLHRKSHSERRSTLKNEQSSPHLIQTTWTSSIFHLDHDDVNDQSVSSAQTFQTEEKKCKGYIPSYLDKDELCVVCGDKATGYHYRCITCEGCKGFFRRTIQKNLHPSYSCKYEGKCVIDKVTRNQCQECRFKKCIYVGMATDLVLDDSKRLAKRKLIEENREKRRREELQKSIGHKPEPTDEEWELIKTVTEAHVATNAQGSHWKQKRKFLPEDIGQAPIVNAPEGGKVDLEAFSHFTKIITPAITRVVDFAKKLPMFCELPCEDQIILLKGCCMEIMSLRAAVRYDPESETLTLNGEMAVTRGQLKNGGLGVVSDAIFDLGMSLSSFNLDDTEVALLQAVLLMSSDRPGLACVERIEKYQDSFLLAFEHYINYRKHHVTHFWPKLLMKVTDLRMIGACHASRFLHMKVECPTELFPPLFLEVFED
The experiment in a line: TR competition binding assay with filter separation. The conditions noted are these: competition with 125I-T3 tracer, full length hTRβ; read-out: TR-β IC50. As for the experimental part: TR Competition Binding Assay with Filter Separation
Compounds are tested for their ability to compete with the tracer ^125I-T3 for binding to full length hTRα and hTRβ. Receptor extracts and tracer are diluted in assay buffer (17 mM K2HPO4, 3 mM KH2PO4, 400 mM KCl, 1 mM MgCl2, 0.5 mM EDTA and 8.7% glycerol). ^125I-T3 is diluted to a final concentration of 0.2 nM and receptor is diluted to reach a final count in Trilux Microbeta of approximately 10000 ccpm. Compounds are typically serially diluted in DMSO from DMSO stock solutions of 10 mM. To 96 well microtiter plates are 100 μl tracer, 4 μl test compound dilution series and 100 μl receptor dilution added. The assay plates are incubated at +4° C. overnight (app. 16 h incubation). Receptor bound and free tracer are separated over a glass fiber filter (FILTERMAT B, PerkinElmer) on a Tomtec Cellharvester with 18 mM K2HPO4, 2 mM KH2PO4, 0.5 mM EDTA wash buffer. The filters are dried at 60° C. for 1 h and then merged with a scintillant wax (MELTILEX, PerkinElmer) on a Wallac Microsealer before measuring in a Trilux Microbeta. IC50s, the concentration test compound needed to decrease tracer binding by 50 percent, are generated via analysis of data in XLfit version 2.0 or later with a four parameter logistic model.

In experiment [2] the target is T2, CHO/hThRβ1 (Homo sapiens, UniProt P10828).
T2 construct: The cDNAs encoding the full length human ThRα1 and ThRβ1 were cloned; expressed in transfected cells
T2 sequence (P10828 1-461): T1 sequence (P10828 1-461)
The experiment in a line: Reporter cell line (TRAF) assay, agonist activity. The conditions noted are these: CHO/hThRβ1 reporter cells, alkaline phosphatase readout after 48 hours. The experiment is classed as cell-based. From the text: Vector Constructs, Generation of Reporter Cell Lines (TRAF), and Assay Procedure.
The cDNAs encoding the full length human ThRα1 and ThRβ1 were cloned in the mammalian expression vector pMT-hGH. The pDR4-ALP reporter vector contains one copy of the direct repeat sequence AGGTCA nnnnAGGTCA, fused upstream of the core promoter sequences of the mouse mammary tumor virus long terminal repeat (MMTV), replacing the glucocorticoid response elements. The DR4-MMTV promoter fragment was then cloned in the 5′ end of the cDNA encoding human placental alkaline phosphatase (ALP), followed in the 3′-end by the polyA-signal sequence of the human growth hormone gene. Chinese hamster ovary (CHO) K1 cells (ATCC No. CCL 61) were transfected in two steps, first with the receptor expression vectors pMT-hThRα1 and pMT-THRβ1, respectively, and the drug resistance vector pSV2-Neo, and in the second step, with the reporter vector pDR4-ALP and the drug resistance vector pKSV-Hyg. Individual drug resistant clones were isolated and selected based on T3 inducibility. One stable reporter cell clone each of CHO/hThRα1 and CHO/hThRβ1 were chosen for further study in response to various thyroid hormone agonists.
CHO/hThRα1 and CHO/hThRβ1 were seeded in growth medium (Coon's/F12, 10% L-3,5,3′-triiodothyronine and L-thyroxine depleted FCS, 2 mM L-glutamine) in 96-well plates at 20×10^3 cells per well. After 24 hour incubation at 37° C. in humidified chambers, at 5% CO2, conditioned medium was replaced by induction medium (OptiMEM, 2 mM L-glutamine, 50 μm/mL gentamycin) and cells were exposed to the test compounds at serial dilutions, at final DMSO concentration of 0.5% , or to serial dilution of T3 (positive control), to assess agonist activity of test compounds.
After 48 hours incubation at 37° C. in humidified chambers at 5% CO2 the level of alkaline phosphatase expressed and secreted into the cell culture medium was analyzed by chemiluminescence on MicroBeta Trilux.
The assay procedure described above was carried out for the compounds of Examples 1 to 40, 43-44 and 47-48.

SMILES strings stand for the structures.

The term IC50 denotes the midpoint of a concentration-inhibition curve. For `CC(C)Cc1nc2cc(Oc3c(Br)cc(CC(F)C(=O)O)cc3Br)ccc2[nH]1` (racemic) [Example 10, 3-(3,5-dibromo-4-{[2-isobutyl-1H-benzimidazol-5-yl]oxy}phenyl)-2-fluoropropanoic acid], the IC50 in experiment [1] was 0.14 nM. The compound also registered a β % agonism in experiment [2] of 100%.

In the case of `O=C(O)CCCc1cc(Br)c(Oc2ccc3[nH]c(-c4ccc(F)cc4)nc3c2)c(Br)c1` [Example 5, 4-(3,5-dibromo-4-{[2-(4-fluorophenyl)-1H-benzimidazol-5-yl]oxy}phenyl)butanoic acid], in experiment [1], the concentration for half-maximal inhibition (IC50) amounted to 5.5 nM. Besides, in experiment [2], the β % agonism stood at 91%.

Consider `Cc1cccc(-c2nc3cc(Oc4c(Br)cc(CCC(=O)O)cc4Br)ccc3[nH]2)c1` [Example 11, 3-(3,5-dibromo-4-{[2-(3-methylphenyl)-1H-benzimidazol-5-yl]oxy}phenyl)propanoic acid], for which, in experiment [1], the half-inhibitory concentration (IC50) worked out at 2.4 nM. This compound also showed a β % agonism in experiment [2] of 99%.

For the compound `CC(C)(C)Cc1nc2cc(Oc3c(Br)cc(OCC(=O)O)cc3Br)ccc2[nH]1` [Example 15, {3,5-dibromo-4-{[2-(2,2-dimethylpropyl)-1H-benzimidazol-5-yl)oxy]phenoxy}acetic acid], the IC50 in experiment [1] came to 1.7 nM. In addition, in experiment [2], the β % agonism came out at 70%.

For `CCCc1nc2cc(Oc3c(Br)cc(OCC(=O)O)cc3Br)ccc2[nH]1` [Example 17], the IC50 in experiment [1] was 7.5 nM. This compound also came in with a β % agonism in experiment [2] of 70%.

Turning to `Cc1nc(-c2nc3cc(Oc4c(Br)cc(CC(F)C(=O)O)cc4Br)ccc3[nH]2)c(C)o1` (stereo not drawn) [Example 32, 3-{3,5-Dibromo-4-[2-(2,5-dimethyl-oxazol4-yl)-1H-benzoimidazol-5-yloxy]-phenyl}-2-fluoropropionic acid], in experiment [1], the IC50 stood at 0.49 nM. Further, the β % agonism in experiment [2] was 75%.
